# Key:
# [1] = tested on: PC-3 prostate cancer cell line; assay: SRB assay cell viability, PC-3 prostate cancer cell line; type: cell-based, human; settings: Homo sapiens, PC-3 prostate cancer cell line, Table II prints no unit, μM printed, read-out: SRB assay: 50% inhibition of cancer cell proliferation of sample concentration (IC50) of PC-3 prostate cancer cell line
# CCRF-CEM = assay: NCI screening platform one-dose single concentration screening, leukemia CCRF-CEM; type: cell-based, human; settings: 10 μM
# HL-60, TB = assay: NCI one-dose screening, leukemia HL-60, TB; type: cell-based, human; settings: 10 μM
# MOLT-4 = assay: NCI one-dose screening, leukemia MOLT-4; type: cell-based, human; settings: 10 μM
# SR = assay: NCI one-dose screening, leukemia SR; type: cell-based, human; settings: 10 μM
# PRMI-8226 cell line = assay: NCI one-dose screening, leukemia PRMI-8226; type: cell-based, human; settings: 10 μM
# K562cell line = assay: NCI one-dose screening, leukemia K562; type: cell-based, human; settings: 10 μM
# EKVX = assay: NCI one-dose screening, non-small cell lung cancer EKVX; type: cell-based, human; settings: 10 μM
# HOP-62 = assay: NCI one-dose screening, non-small cell lung cancer HOP-62; type: cell-based, human; settings: 10 μM
# NCI-H226 = assay: NCI one-dose screening, non-small cell lung cancer NCI-H226; type: cell-based, human; settings: 10 μM
# NCI-H23 = assay: NCI one-dose screening, non-small cell lung cancer NCI-H23; type: cell-based, human; settings: 10 μM
# NCI-H322M = assay: NCI one-dose screening, non-small cell lung cancer NCI-H322M; type: cell-based, human; settings: 10 μM; Non-small cell lung cancer
# NCI-H460 = assay: NCI one-dose screening, non-small cell lung cancer NCI-H460; type: cell-based, human; settings: 10 μM
# NCI-H522 = assay: NCI one-dose screening, non-small cell lung cancer NCI-H522; type: cell-based, human; settings: 10 μM
# A549/ATCC = assay: NCI one-dose screening, non-small cell lung cancer A549/ATCC; type: cell-based, human; settings: 10 μM
# COLO 205 = assay: NCI one-dose screening, colon cancer COLO 205; type: cell-based, human; settings: 10 μM
# HCC-2998 = assay: NCI one-dose screening, colon cancer HCC-2998; type: cell-based, human; settings: 10 μM
# HCT-116 = assay: NCI one-dose screening, colon cancer HCT-116; type: cell-based, human; settings: 10 μM
# HCT-15 = assay: NCI one-dose screening, colon cancer HCT-15; type: cell-based, human; settings: 10 μM
# KM12 = assay: NCI one-dose screening, colon cancer KM12; type: cell-based, human; settings: 10 μM
# HT29 = assay: NCI one-dose screening, colon cancer HT29; type: cell-based, human; settings: 10 μM
# SF-268 = assay: NCI one-dose screening, CNS cancer SF-268; type: cell-based, human; settings: 10 μM
# SF-295 = assay: NCI one-dose screening, CNS cancer SF-295; type: cell-based, human; settings: 10 μM
# SF-539 = assay: NCI one-dose screening, CNS cancer SF-539; type: cell-based, human; settings: 10 μM
# SNB-19 = assay: NCI one-dose screening, CNS cancer SNB-19; type: cell-based, human; settings: 10 μM
# SNB-75 = assay: NCI one-dose screening, CNS cancer SNB-75; type: cell-based, human; settings: 10 μM
# U251 = assay: NCI one-dose screening, CNS cancer U251; type: cell-based, human; settings: 10 μM
# LOX IMVI = assay: NCI one-dose screening, melanoma LOX IMVI; type: cell-based, human; settings: 10 μM
# MALME-3M = assay: NCI one-dose screening, melanoma MALME-3M; type: cell-based, human; settings: 10 μM
# M14 = assay: NCI one-dose screening, melanoma M14; type: cell-based, human; settings: 10 μM
# UACC-62 = assay: NCI one-dose screening, melanoma UACC-62; type: cell-based, human; settings: 10 μM
# UACC-257 = assay: NCI one-dose screening, melanoma UACC-257; type: cell-based, human; settings: 10 μM
# SK-MEL-2 = assay: NCI one-dose screening, melanoma SK-MEL-2; type: cell-based, human; settings: 10 μM
# SK-MEL-28 = assay: NCI one-dose screening, melanoma SK-MEL-28; type: cell-based, human; settings: 10 μM
# SK-MEL-5 = assay: NCI one-dose screening, melanoma SK-MEL-5; type: cell-based, human; settings: 10 μM
# IGROV1 = assay: NCI one-dose screening, ovarian cancer IGROV1; type: cell-based, human; settings: 10 μM
# OVCAR-3 = assay: NCI one-dose screening, ovarian cancer OVCAR-3; type: cell-based, human; settings: 10 μM
# OVCAR-4 = assay: NCI one-dose screening, ovarian cancer OVCAR-4; type: cell-based, human; settings: 10 μM
# OVCAR-5 = assay: NCI one-dose screening, ovarian cancer OVCAR-5; type: cell-based, human; settings: 10 μM
# OVCAR-8 = assay: NCI one-dose screening, ovarian cancer OVCAR-8; type: cell-based, human; settings: 10 μM
# 786-O = assay: NCI one-dose screening, renal cancer 786-O; type: cell-based, human; settings: 10 μM
# CAKI-1 = assay: NCI one-dose screening, renal cancer CAKI-1; type: cell-based, human; settings: 10 μM
# ACHN = assay: NCI one-dose screening, renal cancer ACHN; type: cell-based, human; settings: 10 μM
# SN12C = assay: NCI one-dose screening, renal cancer SN12C; type: cell-based, human; settings: 10 μM
# TK-10 = assay: NCI one-dose screening, renal cancer TK-10; type: cell-based, human; settings: 10 μM
# UO-31 = assay: NCI one-dose screening, renal cancer UO-31; type: cell-based, human; settings: 10 μM
# RXF, 393 = assay: NCI one-dose screening, renal cancer RXF, 393; type: cell-based, human; settings: 10 μM
# DU145 = assay: NCI one-dose screening, prostate cancer DU145; type: cell-based, human; settings: 10 μM
# PC-3 = assay: NCI one-dose screening, prostate cancer PC-3; type: cell-based, human; settings: 10 μM
# MCF7 = assay: NCI one-dose screening, breast cancer MCF7; type: cell-based, human; settings: 10 μM
# HS 578-T = assay: NCI one-dose screening, breast cancer HS 578-T; type: cell-based, human; settings: 10 μM; Breast cancer
# MDA-MB-231/ATCC = assay: NCI one-dose screening, breast cancer MDA-MB-231/ATCC; type: cell-based, human; settings: 10 μM
# MDA-MB-468 = assay: NCI one-dose screening, breast cancer MDA-MB-468; type: cell-based, human; settings: 10 μM
# NCl/ADR-RES = assay: NCI one-dose screening, breast cancer NCl/ADR-RES; type: cell-based, human; settings: 10 μM; listed under Ovarian cancer
# BT-549 = assay: NCI one-dose screening, breast cancer BT-549; type: cell-based, human; settings: 10 μM
# T-47D = assay: NCI one-dose screening, breast cancer T-47D; type: cell-based, human; settings: 10 μM
# MDA, -MB-435 = assay: NCI one-dose screening, breast cancer MDA, -MB-435; type: cell-based, human; settings: 10 μM; listed under Melanoma
# human tumor cell lines = assay: NCI one-dose screening, Mean / Delta / Range of growth percent over all tested cell lines; type: cell-based; settings: 10 μM
smiles,measurement,setting,value
"O=C1c2ccccc2C(=O)c2c1cc(N1CCSCC1)c1nsnc21 [C15, 4-(thiomorpholino)anthra[2,1-c][1,2,5] thiadiazol-6,11-dione]",IC50,[1],> 15 µM
same,Growth Percent CCRF-CEM,CCRF-CEM,43.60%
same,Growth Percent HL-60(TB),"HL-60, TB",51.57%
same,Growth Percent MOLT-4,MOLT-4,42.86%
same,Growth Percent SR,SR,55.02%
same,Growth Percent RPMI-8226,PRMI-8226 cell line,56.96%
same,Growth Percent K562,K562cell line,59.58%
same,Growth Percent EKVX,EKVX,86.63%
same,Growth Percent HOP-62,HOP-62,76.66%
same,Growth Percent NCI-H226,NCI-H226,78.10%
same,Growth Percent NCI-H23,NCI-H23,33.45%
same,Growth Percent NCI-H322M,NCI-H322M,91.69%
same,Growth Percent NCI-H460,NCI-H460,87.46%
same,Growth Percent NCI-H522,NCI-H522,38.70%
same,Growth Percent A549/ATCC,A549/ATCC,62.74%
same,Growth Percent COLO 205,COLO 205,107.31%
same,Growth Percent HCC-2998,HCC-2998,107.83%
same,Growth Percent HCT-116,HCT-116,88.21%
same,Growth Percent HCT-15,HCT-15,61.93%
same,Growth Percent KM12,KM12,83.12%
same,Growth Percent HT29,HT29,86.91%
same,Growth Percent SF-268,SF-268,95.90%
same,Growth Percent SF-295,SF-295,94.85%
same,Growth Percent SF-539,SF-539,90.64%
same,Growth Percent SNB-19,SNB-19,100.15%
same,Growth Percent SNB-75,SNB-75,105.73%
same,Growth Percent U251,U251,40.24%
same,Growth Percent LOX IMVI,LOX IMVI,30.16%
same,Growth Percent MALME-3M,MALME-3M,48.56%
same,Growth Percent M14,M14,117.70%
same,Growth Percent UACC-62,UACC-62,83.96%
same,Growth Percent UACC-257,UACC-257,35.78%
same,Growth Percent SK-MEL-2,SK-MEL-2,43.98%
same,Growth Percent SK-MEL-28,SK-MEL-28,90.60%
same,Growth Percent SK-MEL-5,SK-MEL-5,22.81%
same,Growth Percent IGROV1,IGROV1,75.28%
same,Growth Percent OVCAR-3,OVCAR-3,41.52%
same,Growth Percent OVCAR-4,OVCAR-4,0.28%
same,Growth Percent OVCAR-5,OVCAR-5,112.62%
same,Growth Percent OVCAR-8,OVCAR-8,41.72%
same,Growth Percent 786-0,786-O,120.26%
same,Growth Percent CAKI-1,CAKI-1,76.06%
same,Growth Percent ACHN,ACHN,83.52%
same,Growth Percent SN12C,SN12C,76.76%
same,Growth Percent TK-10,TK-10,106.46%
same,Growth Percent UO-31,UO-31,61.00%
same,Growth Percent RXF 393,"RXF, 393",85.93%
same,Growth Percent DU145,DU145,79.83%
same,Growth Percent PC-3,PC-3,56.99%
same,Growth Percent MCF7,MCF7,49.73%
same,Growth Percent HS 578T,HS 578-T,84.36%
same,Growth Percent MDA-MB-231/ATCC,MDA-MB-231/ATCC,45.69%
same,Growth Percent MDA-MB-468,MDA-MB-468,12.59%
same,Growth Percent NCI/ADR-RES,NCl/ADR-RES,54.16%
same,Growth Percent BT-549,BT-549,104.74%
same,Growth Percent T-47D,T-47D,56.78%
same,Growth Percent MDA-MB-435,"MDA, -MB-435",77.03%
same,melting point,,219 to 220 °C
same,Growth Percent Delta,human tumor cell lines; delta over all cell lines,70.03%
same,Growth Percent Mean,human tumor cell lines; mean over all cell lines,70.31%
same,Growth Percent Range,human tumor cell lines; range over all cell lines,119.98%
